Data as given in article PMC12717099, “Peptidoglycan recruitment by a penicillin binding protein” (Nature Communications, 2025).

What was measured:
Format in all cases: binding, Enterococcus faecium
[1] = test system: PBP5; assay: 1D 1H STD NMR of stem peptides with PBP5; settings: for STD % to SP1: normalised to highest SP1:PBP5 value; for STD amplification factor: protein:peptide 1:100, 2 s saturation, 308 K
Excerpt: (§1) Total saturation time for STD measurements was 2 s.
(§2) Overlapped peaks were completely excluded from the analysis.

[2] = test system: PBP5:PenG complex (1:8); assay: NMR CSP titration of stem peptides into PenG-saturated PBP5; settings: PBP5:PenG 1:8, then SP titration
Method: Data was processed using Topspin 4.1.4 (Bruker) and analyzed using NMRFAM-SPARKY 1.3 and Poky (build number 20240829)[20],[21]. The sequence-specific backbone assignment of PBP5 is publicly available at BMRBID 51690.
SPs (SP1 to SP7) were titrated into 0.5 mM (^2H,^15N)-labeled and 0.1 mM (^2H,^15N)/^13C ILV labeled PBP5 at molar ratios of 0:1, 5:1, 10:1, 20:1, 40:1, 60:1, and 80:1 (stem peptide/SP:PBP5; molar ratios). 2D [^1H,^15N] TROSY or 2D [^1H,^13C] HMQC spectra were recorded for each titration point. SPs were solubilized in NMR buffer. Chemical shift perturbations (Δδ) between PBP5 and SP bound PBP5 spectra were calculated using Eq. 1,1 Δδppm=ΔδH^2+ΔδX/Y^2 where, X is ^15N or ^13C and Y is the constant i.e., 10 for ^15N and 4 for ^13C.
Residues with significant CSPs were identified by calculating the standard deviation of all CSPs (σ), then excluding any CSPs larger than average+2σ, recalculating σ as a new corrected σ0, and then repetitively removing CSPs above 2σ0 until no additional CSPs can be removed. CSPs above ≥2σ2 was the statistical threshold for ^1H/^15N backbone CSP analysis and ≥2xσ1 for ^1H/^13C methyl ILV data for the interaction of SP1 with PBP5. The same threshold values were used for all other peptides to allow for direct comparison with the SP1/PBP5 interaction. […]

[3] = test system: PBP5:PenG complex; assay: 1D 1H STD NMR of stem peptides with PBP5:PenG; settings: for STD amplification factor: PenG-saturated PBP5, 2 s saturation
Excerpt: as §1, §2

D-Lac-L-Ala-D-iGln-L-Lys(D-iAsn) [SP2]
STD amplification factor as fraction of highest SP1:PBP5 value ([1]; 1H DLacβ): 0.3338 | STD % to SP1 ([1]; 1H DLacβ): 33.3802% | STD amplification factor ([1]; 1H DLacβ): 8.982 | STD amplification factor as fraction of highest SP1:PBP5 value ([1]; 1H DQ2β (first listed)): 0.6658 | STD % to SP1 ([1]; 1H DQ2β (first listed)): 66.5792% | STD amplification factor ([1]; 1H DQ2β (first listed)): 17.9154 | STD amplification factor as fraction of highest SP1:PBP5 value ([1]; 1H DQ2β (second listed)): 0.8494 | STD % to SP1 ([1]; 1H DQ2β (second listed)): 84.9407% | STD amplification factor ([1]; 1H DQ2β (second listed)): 22.8562 | STD amplification factor as fraction of highest SP1:PBP5 value ([1]; 1H DQ2γ): 0.2468 | STD % to SP1 ([1]; 1H DQ2γ): 24.6819% | STD amplification factor ([1]; 1H DQ2γ): 6.6415 | STD amplification factor as fraction of highest SP1:PBP5 value ([1]; 1H K3α): 0.4302 | STD % to SP1 ([1]; 1H K3α): 43.0201% | STD amplification factor ([1]; 1H K3α): 11.576 | STD amplification factor as fraction of highest SP1:PBP5 value ([1]; 1H K3β): 0.9507 | STD % to SP1 ([1]; 1H K3β): 95.0654% | STD amplification factor ([1]; 1H K3β): 25.5806 | STD amplification factor as fraction of highest SP1:PBP5 value ([1]; 1H K3γ): 0.5906 | STD % to SP1 ([1]; 1H K3γ): 59.0623% | STD amplification factor ([1]; 1H K3γ): 15.8927 | STD amplification factor as fraction of highest SP1:PBP5 value ([1]; 1H K3δ): 0.6971 | STD % to SP1 ([1]; 1H K3δ): 69.7058% | STD amplification factor ([1]; 1H K3δ): 18.7567 | STD amplification factor as fraction of highest SP1:PBP5 value ([1]; 1H K3ε): 0.1751 | STD % to SP1 ([1]; 1H K3ε): 17.5055% | STD amplification factor ([1]; 1H K3ε): 4.71 | STD amplification factor as fraction of highest SP1:PBP5 value ([1]; 1H LA1α): 0.3317 | STD % to SP1 ([1]; 1H LA1α): 33.1655% | STD amplification factor ([1]; 1H LA1α): 8.924 | STD amplification factor as fraction of highest SP1:PBP5 value ([1]; 1H LA1β): 0.3463 | STD % to SP1 ([1]; 1H LA1β): 34.6271% | STD amplification factor ([1]; 1H LA1β): 9.318 | STD amplification factor as fraction of highest SP1:PBP5 value ([1]; 1H iNα,DQ2α): 0.2066 | STD % to SP1 ([1]; 1H iNα,DQ2α): 20.663% | STD amplification factor ([1]; 1H iNα,DQ2α): 5.56 | STD amplification factor as fraction of highest SP1:PBP5 value ([1]; 1H iNβ): 0.2856 | STD % to SP1 ([1]; 1H iNβ): 28.5568% | STD amplification factor ([1]; 1H iNβ): 7.684 | CSPs in presence vs absence of penicillin, in words [2]: nearly identical | STD amplification factor, ref to SP1 (fraction) ([3]; 1H DLacβ): 0.3213 | STD, ref to SP1 (percent) ([3]; 1H DLacβ): 32.1311 | STD amplification factor ([3]; 1H DLacβ): 8.646 | STD amplification factor, ref to SP1 (fraction) ([3]; 1H DQ2β (first listed)): 0.7026 | STD, ref to SP1 (percent) ([3]; 1H DQ2β (first listed)): 70.2576 | STD amplification factor ([3]; 1H DQ2β (first listed)): 18.9052 | STD amplification factor, ref to SP1 (fraction) ([3]; 1H DQ2β (second listed)): 0.9395 | STD, ref to SP1 (percent) ([3]; 1H DQ2β (second listed)): 93.9523 | STD amplification factor ([3]; 1H DQ2β (second listed)): 25.2811 | STD amplification factor, ref to SP1 (fraction) ([3]; 1H DQ2γ): 0.3025 | STD, ref to SP1 (percent) ([3]; 1H DQ2γ): 30.2481 | STD amplification factor ([3]; 1H DQ2γ): 8.139 | STD amplification factor, ref to SP1 (fraction) ([3]; 1H K3α): 0.5268 | STD, ref to SP1 (percent) ([3]; 1H K3α): 52.6829 | STD amplification factor ([3]; 1H K3α): 14.1761 | STD amplification factor, ref to SP1 (fraction) ([3]; 1H K3β): 1.026 | STD, ref to SP1 (percent) ([3]; 1H K3β): 102.583 | STD amplification factor ([3]; 1H K3β): 27.6034 | STD amplification factor, ref to SP1 (fraction) ([3]; 1H K3γ): 0.589 | STD, ref to SP1 (percent) ([3]; 1H K3γ): 58.9034 | STD amplification factor ([3]; 1H K3γ): 15.8499 | STD amplification factor, ref to SP1 (fraction) ([3]; 1H K3δ): 0.6424 | STD, ref to SP1 (percent) ([3]; 1H K3δ): 64.2392 | STD amplification factor ([3]; 1H K3δ): 17.2857 | STD amplification factor, ref to SP1 (fraction) ([3]; 1H K3ε): 0.1756 | STD, ref to SP1 (percent) ([3]; 1H K3ε): 17.5552 | STD amplification factor ([3]; 1H K3ε): 4.724 | STD amplification factor, ref to SP1 (fraction) ([3]; 1H LA1α): 0.4522 | STD, ref to SP1 (percent) ([3]; 1H LA1α): 45.2214 | STD amplification factor ([3]; 1H LA1α): 12.1683 | STD amplification factor, ref to SP1 (fraction) ([3]; 1H LA1β): 0.3642 | STD, ref to SP1 (percent) ([3]; 1H LA1β): 36.4217 | STD amplification factor ([3]; 1H LA1β): 9.8 | STD amplification factor, ref to SP1 (fraction) ([3]; 1H iNα,DQ2α): 0.2492 | STD, ref to SP1 (percent) ([3]; 1H iNα,DQ2α): 24.9206 | STD amplification factor ([3]; 1H iNα,DQ2α): 6.706 | STD amplification factor, ref to SP1 (fraction) ([3]; 1H iNβ): 0.3249 | STD, ref to SP1 (percent) ([3]; 1H iNβ): 32.4924 | STD amplification factor ([3]; 1H iNβ): 8.743
